# Reference: US20090163461A1, “Ligand for Vesicular Acetylcholine Transporter” (priority 2005, published 2009)
# What was measured:
# [1] = Tissue distribution of radioactivity after intravenous injection in rats; assay type: in vivo; conditions: rat
# Procedure: From the tail vein of each rat, an injection containing 20 MBq of (−)-[^11C]-o-MeVES (0.2 ml) was administered. At 5 minutes, 15 minutes, 30 minutes, and 60 minutes after administration, the rats were killed by cervical dislocation, and blood was drawn from the heart using a syringe, after which tissues such as the heart, lungs, liver, and brain were extirpated, and the radioactivity in each tissue was measured using a gamma counter. Each tissue was also weighed.
# VAChT = test: PET brain imaging of learning disability model (neurolysis) monkeys and healthy monkeys; assay type: in vivo, monkey; conditions: 185-740 MBq i.v., images 15 minutes to 60 minutes after administration
# Procedure: 185-740 MBq of (−)-[^11C]-o-MeVES was administered to a vein of each of learning disability model monkeys (neurolysis monkeys) created by selectively destroying the p75NTR positive cells (ACh neurons) in the right hemisphere of the brain with 192-Saporin (manufactured by Advanced Targeting Systems) and healthy monkeys, and image data were collected using PET for animals (PET; manufactured by Hamamatsu Photonics K.K., SHR-7700) at 10 seconds to 91 minutes after administration. The image data obtained at 15 minutes to 60 minutes after administration were picturized; the photographs thus obtained are shown in FIG. 4.
# VAChT in the brain = molecular target: T1, VAChT in the brain (Rattus norvegicus, UniProt Q62666); test: Rat brain ex vivo autoradiography; assay type: in vivo; conditions: 110-120 MBq i.v., 15 or 30 minutes after administration
# T1 construct: from tissue; host or cells: brain of living rats, tissue counted or sectioned after killing
# T1 sequence (Q62666 1-530): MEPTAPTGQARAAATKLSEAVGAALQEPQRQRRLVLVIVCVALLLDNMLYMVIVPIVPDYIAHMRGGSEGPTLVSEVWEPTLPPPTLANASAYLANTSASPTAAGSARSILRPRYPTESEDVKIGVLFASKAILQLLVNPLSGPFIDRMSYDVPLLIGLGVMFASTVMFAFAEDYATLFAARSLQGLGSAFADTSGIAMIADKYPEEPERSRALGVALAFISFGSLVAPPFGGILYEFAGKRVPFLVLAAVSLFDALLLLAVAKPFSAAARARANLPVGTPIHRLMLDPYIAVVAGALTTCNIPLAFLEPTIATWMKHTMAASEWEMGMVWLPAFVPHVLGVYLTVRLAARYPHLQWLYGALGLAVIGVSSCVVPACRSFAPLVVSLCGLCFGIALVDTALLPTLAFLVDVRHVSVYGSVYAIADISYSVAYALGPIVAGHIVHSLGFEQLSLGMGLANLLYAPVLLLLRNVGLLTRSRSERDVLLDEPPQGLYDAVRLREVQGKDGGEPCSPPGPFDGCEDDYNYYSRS
# Procedure: To the caudal vein of each rat, 110-120 MBq of (−)-[^11C]-o-MeVES was administered, and the rats were killed by cervical dislocation and had the brain extirpated 15 minutes after administration for the first rat, or 30 minutes after administration for the second rat. The extirpated brain was immediately frozen with dry ice, and a brain section 20 μm in thickness was prepared using a cryomicrotome. The brain section was mounted on a glass plate, this section was dried on a hot plate (60° C.), and images of radioactivity distribution were obtained by radioluminography.
compound,measurement,setting,value
"[11CH3]c1ccccc1C1CCN(C2CCCC[C@H]2O)CC1 (single isomer, unassigned; (-)) [(−)-[^11C]-o-MeVES, (−)-[^11C]-2-(4-(2-methylphenyl)piperidino)cyclohexanol]",Radioactivity level blood 5 min,"[1]; i.v. 20 MBq, blood, 5 min, % of administered radioactivity per gram of tissue, mean ± S.D. n = 4-6",0.45 ± 0.04%
same,Radioactivity level blood 15 min,"[1]; i.v. 20 MBq, blood, 15 min, % of administered radioactivity per gram of tissue, mean ± S.D. n = 4-6",0.27 ± 0.03%
same,Radioactivity level blood 30 min,"[1]; i.v. 20 MBq, blood, 30 min, % of administered radioactivity per gram of tissue, mean ± S.D. n = 4-6",0.24 ± 0.02%
same,Radioactivity level blood 60 min,"[1]; i.v. 20 MBq, blood, 60 min, % of administered radioactivity per gram of tissue, mean ± S.D. n = 4-6",0.18 ± 0.02%
same,Radioactivity level brain 5 min,"[1]; i.v. 20 MBq, brain, 5 min, % of administered radioactivity per gram of tissue, mean ± S.D. n = 4-6",5.47 ± 0.44%
same,Radioactivity level brain 15 min,"[1]; i.v. 20 MBq, brain, 15 min, % of administered radioactivity per gram of tissue, mean ± S.D. n = 4-6",4.54 ± 0.54%
same,Radioactivity level brain 30 min,"[1]; i.v. 20 MBq, brain, 30 min, % of administered radioactivity per gram of tissue, mean ± S.D. n = 4-6",4.71 ± 0.45%
same,Radioactivity level brain 60 min,"[1]; i.v. 20 MBq, brain, 60 min, % of administered radioactivity per gram of tissue, mean ± S.D. n = 4-6",3.86 ± 0.28%
same,Radioactivity level heart 5 min,"[1]; i.v. 20 MBq, heart, 5 min, % of administered radioactivity per gram of tissue, mean ± S.D. n = 4-6",3.37 ± 0.30%
same,Radioactivity level heart 15 min,"[1]; i.v. 20 MBq, heart, 15 min, % of administered radioactivity per gram of tissue, mean ± S.D. n = 4-6",1.82 ± 0.19%
same,Radioactivity level heart 30 min,"[1]; i.v. 20 MBq, heart, 30 min, % of administered radioactivity per gram of tissue, mean ± S.D. n = 4-6",1.52 ± 0.11%
same,Radioactivity level heart 60 min,"[1]; i.v. 20 MBq, heart, 60 min, % of administered radioactivity per gram of tissue, mean ± S.D. n = 4-6",0.96 ± 0.02%
same,Radioactivity level kidney 5 min,"[1]; i.v. 20 MBq, kidney, 5 min, % of administered radioactivity per gram of tissue, mean ± S.D. n = 4-6",11.10 ± 4.31%
same,Radioactivity level kidney 15 min,"[1]; i.v. 20 MBq, kidney, 15 min, % of administered radioactivity per gram of tissue, mean ± S.D. n = 4-6",7.52 ± 0.40%
same,Radioactivity level kidney 30 min,"[1]; i.v. 20 MBq, kidney, 30 min, % of administered radioactivity per gram of tissue, mean ± S.D. n = 4-6",6.02 ± 0.09%
same,Radioactivity level kidney 60 min,"[1]; i.v. 20 MBq, kidney, 60 min, % of administered radioactivity per gram of tissue, mean ± S.D. n = 4-6",4.15 ± 0.50%
same,Radioactivity level liver 5 min,"[1]; i.v. 20 MBq, liver, 5 min, % of administered radioactivity per gram of tissue, mean ± S.D. n = 4-6",2.58 ± 0.23%
same,Radioactivity level liver 15 min,"[1]; i.v. 20 MBq, liver, 15 min, % of administered radioactivity per gram of tissue, mean ± S.D. n = 4-6",2.93 ± 0.38%
same,Radioactivity level liver 30 min,"[1]; i.v. 20 MBq, liver, 30 min, % of administered radioactivity per gram of tissue, mean ± S.D. n = 4-6",3.22 ± 0.76%
same,Radioactivity level liver 60 min,"[1]; i.v. 20 MBq, liver, 60 min, % of administered radioactivity per gram of tissue, mean ± S.D. n = 4-6",3.28 ± 0.32%
same,Radioactivity level lung 5 min,"[1]; i.v. 20 MBq, lung, 5 min, % of administered radioactivity per gram of tissue, mean ± S.D. n = 4-6",16.55 ± 2.56%
same,Radioactivity level lung 15 min,"[1]; i.v. 20 MBq, lung, 15 min, % of administered radioactivity per gram of tissue, mean ± S.D. n = 4-6",10.38 ± 2.48%
same,Radioactivity level lung 30 min,"[1]; i.v. 20 MBq, lung, 30 min, % of administered radioactivity per gram of tissue, mean ± S.D. n = 4-6",8.74 ± 0.34%
same,Radioactivity level lung 60 min,"[1]; i.v. 20 MBq, lung, 60 min, % of administered radioactivity per gram of tissue, mean ± S.D. n = 4-6",4.81 ± 0.76%
same,Radioactivity level muscle 5 min,"[1]; i.v. 20 MBq, muscle, 5 min, % of administered radioactivity per gram of tissue, mean ± S.D. n = 4-6",1.57 ± 0.27%
same,Radioactivity level muscle 15 min,"[1]; i.v. 20 MBq, muscle, 15 min, % of administered radioactivity per gram of tissue, mean ± S.D. n = 4-6",1.42 ± 0.44%
same,Radioactivity level muscle 30 min,"[1]; i.v. 20 MBq, muscle, 30 min, % of administered radioactivity per gram of tissue, mean ± S.D. n = 4-6",1.18 ± 0.24%
same,Radioactivity level muscle 60 min,"[1]; i.v. 20 MBq, muscle, 60 min, % of administered radioactivity per gram of tissue, mean ± S.D. n = 4-6",1.00 ± 0.16%
same,Radioactivity level pancreas 5 min,"[1]; i.v. 20 MBq, pancreas, 5 min, % of administered radioactivity per gram of tissue, mean ± S.D. n = 4-6",8.44 ± 1.93%
same,Radioactivity level pancreas 15 min,"[1]; i.v. 20 MBq, pancreas, 15 min, % of administered radioactivity per gram of tissue, mean ± S.D. n = 4-6",12.13 ± 2.23%
same,Radioactivity level pancreas 30 min,"[1]; i.v. 20 MBq, pancreas, 30 min, % of administered radioactivity per gram of tissue, mean ± S.D. n = 4-6",11.53 ± 2.67%
same,Radioactivity level pancreas 60 min,"[1]; i.v. 20 MBq, pancreas, 60 min, % of administered radioactivity per gram of tissue, mean ± S.D. n = 4-6",10.67 ± 1.22%
same,Radioactivity level small intestine 5 min,"[1]; i.v. 20 MBq, small intestine, 5 min, % of administered radioactivity per gram of tissue, mean ± S.D. n = 4-6",6.19 ± 0.58%
same,Radioactivity level small intestine 15 min,"[1]; i.v. 20 MBq, small intestine, 15 min, % of administered radioactivity per gram of tissue, mean ± S.D. n = 4-6",8.76 ± 1.66%
same,Radioactivity level small intestine 30 min,"[1]; i.v. 20 MBq, small intestine, 30 min, % of administered radioactivity per gram of tissue, mean ± S.D. n = 4-6",8.48 ± 1.85%
same,Radioactivity level small intestine 60 min,"[1]; i.v. 20 MBq, small intestine, 60 min, % of administered radioactivity per gram of tissue, mean ± S.D. n = 4-6",8.90 ± 0.50%
same,Radioactivity level spleen 5 min,"[1]; i.v. 20 MBq, spleen, 5 min, % of administered radioactivity per gram of tissue, mean ± S.D. n = 4-6",4.97 ± 1.06%
same,Radioactivity level spleen 15 min,"[1]; i.v. 20 MBq, spleen, 15 min, % of administered radioactivity per gram of tissue, mean ± S.D. n = 4-6",5.90 ± 0.51%
same,Radioactivity level spleen 30 min,"[1]; i.v. 20 MBq, spleen, 30 min, % of administered radioactivity per gram of tissue, mean ± S.D. n = 4-6",5.56 ± 0.52%
same,Radioactivity level spleen 60 min,"[1]; i.v. 20 MBq, spleen, 60 min, % of administered radioactivity per gram of tissue, mean ± S.D. n = 4-6",4.24 ± 0.35%
same,brain accumulation,"[1]; i.v., 5-60 min",retainable
same,organ accumulation / exposure,"[1]; i.v., 5-60 min",no organs showing particularly high accumulation
same,RI accumulation in healthy monkeys (PET),VAChT; healthy monkeys,no change in the accumulation
same,RI accumulation in the cerebral cortex on the neurolysis side compared to the healthy side (PET),VAChT; neurolysis monkeys,significant reduction in RI accumulation
same,local distribution in the brain (autoradiography),VAChT in the brain,agreed well with the in vitro local distribution of (−)-[^3H]-vesamicol
